27 molecules from patent publication US10172814B2, “Substituted pyridyl-cycloalkyl-carboxylic acids, compositions containing them and medical uses thereof” (BAYER PHARMA AKTIENGESELLSCHAFT, priority 2014, dated 2019) can be followed below.

The structures appear in SMILES notation.

Sequence of human PTGES (O14684 whole entry): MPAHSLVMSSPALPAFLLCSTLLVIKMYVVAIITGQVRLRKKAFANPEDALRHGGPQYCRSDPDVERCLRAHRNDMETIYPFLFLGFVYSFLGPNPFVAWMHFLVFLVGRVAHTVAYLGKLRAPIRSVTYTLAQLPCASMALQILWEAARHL

The test has as its target human PTGES (Homo sapiens (Human), UniProt O14684). Put plainly: Human PTGES biochemical enzyme inhibition assay (conversion of PGH2 to PGE2, TR-FRET). Particulars: Enzymatic conversion of PGH2 to PGE2; read-out: Human PTGES IC50. The protocol:
Human PTGES Biochemical Enzyme Inhibition Assay:
PTGES (Microsomal prostaglandin E synthase 1) is an enzyme that converts prostaglandin H2 (PGH2) to prostaglandin E2 (PGE2) in the presence of reduced glutathione (GSH).
Recombinant proteins (human isoforms) of PTGES containing a FLAG tag, expressed in baculovirus infected insect cells (Hi-5) and purified by affinity chromatography was used as enzyme in the assay. Substrate was prostaglandin H2 (Cayman Chemicals).
4 ul of a solution of human PTGES in assay buffer [100 mM sodium phosphate pH 7.2, 2.5 mM Glutathion reduced, 1 mM EDTA, 0.01% BSA, 0.4 mM DTT, 0.15 mM n-dodecylmaltoside] was added to the well containing test compound and incubated for 15-20 minutes to allow binding of the compound to the enzyme prior to the enzymatic reaction. The reaction was started by addition of 1 ul of an ice cold solution containing PGH2 (40 nM in assay buffer resulting in a final concentration of 8 nM PGH2 in the assay). […] The concentration of each isoform of PTGES was adapted to the activity of the respective enzyme preparation to maintain linear reaction properties within the reaction time. […] The reaction was stopped by addition of 1 ul of a solution containing 15 mM SnCl2 and 400 mM KF in water. SnCl2 converts the remaining unstable PGH2 to stable PGF2alpha. Then, 3 ul of the a first detection solution containing PGE2-D2 (Cisbio Bioassays, TR-FRET reagent, diluted according to the manufacturer's recommendation, typically 1:20 in reconstitution buffer) was added. […] The resulting mix was incubated overnight at 4° C. to allow the formation of a complex of PGE2 and the detection reagents. […] Dilution series were made prior to the assay in a 100 fold concentrated form by serial dilution. IC50 values were calculated by 4-Parameter fitting.
With `Cc1c(CCC(=O)O)cccc1NC(=O)C(c1ccc(-c2ccc(C#N)nc2)cc1)C1CCCC1` (racemic) [Example 7, (R/S) 3-[3-({[4-(6-Cyanopyridin-3-yl)phenyl](cyclopentyl)acetyl}amino)-2-methylphenyl]propanoic acid], the IC50 (as a rule, the concentration that inhibits the measured activity by half) turned out to be 3.16 µM.

Take `CCOc1cncc(-c2ccc(C(C(=O)Nc3cccc(CCC(=O)O)c3C)C3CCCC3)cc2)c1` (racemic) [Example 8, (R/S) 3-[3-({Cyclopentyl[4-(5-ethoxypyridin-3-yl)phenyl]acetyl}amino)-2-methylphenyl]propanoic acid]: the IC50 is 0.16 µM.

As for `Cc1c(CCC(=O)O)cccc1NC(=O)C(c1ccc(-c2cncc(C(C)(C)O)c2)cc1)C1CCCC1` (racemic) [Example 9, (R/S) 3-{3-[(Cyclopentyl{4-[5-(2-hydroxypropan-2-yl)pyridin-3-yl]phenyl}acetyl)amino]-2-methylphenyl}propanoic acid], the IC50 is 3.56 µM.

Regarding `COCc1cncc(-c2ccc(C(C(=O)Nc3cccc(CCC(=O)O)c3C)C3CCCC3)cc2)c1` (racemic) [Example 10, (R/S) 3-{3-[(Cyclopentyl{4-[5-(methoxymethyl)pyridin-3-yl]phenyl}acetyl)amino]-2-methylphenyl}propanoic acid], the IC50 was 0.47 µM.

As to `COc1cncc(-c2ccc(C(C(=O)Nc3cccc(CCC(=O)O)c3C)C3CCCC3)cc2)c1` (racemic) [Example 11, (R/S) 3-[3-({Cyclopentyl[4-(5-methoxypyridin-3-yl)phenyl]acetyl}amino)-2-methylphenyl]propanoic acid], the IC50 was 0.341 µM.

As to `CCc1cncc(-c2ccc(C(C(=O)Nc3cccc(CCC(=O)O)c3C)C3CCCC3)cc2)c1` (racemic) [Example 13, (R/S) 3-[3-({Cyclopentyl[4-(5-ethylpyridin-3-yl)phenyl]acetyl}amino)-2-methylphenyl]propanoic acid], the IC50 was found to be 0.0782 µM.

`Cc1c(CCC(=O)O)cccc1NC(=O)C(c1ccc(-c2cncc(C3CC3)c2)cc1)C1CCCC1` (racemic) [Example 14, (R/S) 3-[3-({Cyclopentyl[4-(5-cyclopropylpyridin-3-yl)phenyl]acetyl}amino)-2-methylphenyl]propanoic acid]: the IC50 turned out to be 0.115 µM.

As for `Cc1c(CCC(=O)O)cccc1NC(=O)C(c1ccc(-c2cncc(OC3CCOCC3)c2)cc1)C1CCCC1` (racemic) [Example 15, (R/S) 3-{3-[(Cyclopentyl{4-[5-(tetrahydro-2H-pyran-4-yloxy)pyridin-3-yl]phenyl}acetyl)amino]-2-methylphenyl}propanoic acid], the IC50 is 0.114 µM.

`Cc1c(CCC(=O)O)cccc1NC(=O)C(c1ccc(-c2cncc(Cl)c2)cc1)C1CCCC1` (racemic) [Example 16, (R/S) 3-[3-({[4-(5-Chloropyridin-3-yl)phenyl](cyclopentyl)acetyl}amino)-2-methylphenyl]propanoic acid]: the IC50 is 0.0596 µM.

`COc1ccc(-c2ccc(C(C(=O)Nc3cccc(CCC(=O)O)c3C)C3CCCC3)cc2)cn1` (racemic) [Example 18, (R/S) 3-[3-({Cyclopentyl[4-(6-methoxypyridin-3-yl)-phenyl]acetyl}amino)-2-methylphenyl]propanoic acid]: the IC50 came out at 0.236 µM.

Regarding `Cc1c(CCC(=O)O)cccc1NC(=O)C(c1ccc(-c2ccc(F)nc2)cc1)C1CCCC1` (racemic) [Example 19, (R/S) 3-[3-({Cyclopentyl[4-(6-fluoropyridin-3-yl)-phenyl]acetyl}amino)-2-methylphenyl]propanoic acid], the IC50 was 0.552 µM.

As for `COc1ncccc1-c1ccc(C(C(=O)Nc2cccc(CCC(=O)O)c2C)C2CCCC2)cc1` (racemic) [Example 20, (R/S) 3-[3-({Cyclopentyl[4-(2-methoxypyridin-3-yl)-phenyl]acetyl}amino)-2-methylphenyl]propanoic acid], the IC50 stood at 2.55 µM.

Regarding `Cc1cncc(-c2ccc(C(C(=O)Nc3cccc(CCC(=O)O)c3C)C3CCCC3)cc2)c1` (racemic) [Example 21, (R/S) 3-[3-({Cyclopentyl[4-(5-methylpyridin-3-yl)-phenyl]acetyl}amino)-2-methylphenyl]propanoic acid], the IC50 came to 0.161 µM.

In the case of `Cc1c(CCC(=O)O)cccc1NC(=O)C(c1ccc(-c2cccnc2F)cc1)C1CCCC1` (racemic) [Example 23, (R/S) 3-[3-({cyclopentyl[4-(2-fluoro-pyridin-3-yl)-phenyl]-acetyl}amino)-2-methyl-phenyl]propanoic acid], the IC50 turned out to be 5.26 µM.

On to `Cc1cc(-c2ccc(C(C(=O)Nc3cccc(CCC(=O)O)c3C)C3CCCC3)cc2)cnc1C` (racemic) [Example 27, (R/S) 3-[3-({Cyclopentyl[4-(5,6-dimethylpyridin-3-yl)phenyl]acetyl}amino)-2-methylphenyl]propanoic acid], for which the IC50 is 0.0903 µM.

For `Cc1c(CCC(=O)O)cccc1NC(=O)C(c1ccc(-c2cncc(OC(F)F)c2)cc1)C1CCCC1` (racemic) [Example 28, (R/S) 3-{3-[(Cyclopentyl{4-[5-(difluoromethoxy)pyridin-3-yl]phenyl}acetyl)amino]-2-methylphenyl}propanoic acid], the IC50 was determined as 0.38 µM.

In the case of `Cc1c(CCC(=O)O)cccc1NC(=O)C(c1ccc(-c2cncc(C(F)F)c2)cc1)C1CCCC1` (racemic) [Example 29, (R/S) 3-{3-[(Cyclopentyl{4-[5-(difluoromethyl)pyridin-3-yl]phenyl}acetyl)amino]-2-methylphenyl}propanoic acid], the IC50 stood at 0.0782 µM.

On to `Cc1c(CCC(=O)O)cccc1NC(=O)C(c1ccc(-c2cncc(CF)c2)cc1)C1CCCC1` (racemic) [Example 30, (R/S) 3-{3-[(Cyclopentyl{4-[5-(fluoromethyl)pyridin-3-yl]phenyl}acetyl)amino]-2-methylphenyl}propanoic acid], for which the IC50 is 0.188 µM.

For the molecule `Cc1c(CCC(=O)O)cccc1NC(=O)C(c1ccc(-c2cncc(Cl)c2)cc1)C1CC1` (racemic) [Example 31, (R/S) 3-[3-({[4-(5-Chloropyridin-3-yl)phenyl](cyclopropyl)acetyl}amino)-2-methylphenyl]propanoic acid], the IC50 was 0.443 µM.

Regarding `Cc1c(CCC(=O)O)cccc1NC(=O)C(c1ccc(-c2cncc(C(F)(F)F)c2)cc1)C1CC1` (racemic) [Example 32, (R/S) 3-{3-[(Cyclopropyl{4-[5-(trifluoromethyl)pyridin-3-yl]phenyl}acetyl)amino]-2-methylphenyl}propanoic acid], the IC50 worked out at 0.47 µM.

With `Cc1c(NC(=O)C(c2ccc(-c3cncc(C(F)(F)F)c3)cc2)C2CCCC2)cccc1OCC(=O)O` (racemic) [Example 33, (R/S) {3-[(Cyclopentyl{4-[5-(trifluoromethyl)pyridin-3-yl]phenyl}acetyl)amino]-2-methylphenoxy}acetic acid], the IC50 was 0.0143 µM.

For the molecule `COc1ccc(NC(=O)C(c2ccc(-c3cncc(C(F)(F)F)c3)cc2)C2CCCC2)c(C)c1CCC(=O)O` (racemic) [Example 40, (R/S) 3-{3-[(Cyclopentyl{4-[5-(trifluoromethyl)pyridin-3-yl]phenyl}acetyl)amino]-6-methoxy-2-methylphenyl}propanoic acid], the IC50 came to 0.0282 µM.

For `Cc1cc(C(C(=O)Nc2cccc(CCC(=O)O)c2C)C2CCCC2)ccc1-c1cncc(C(F)(F)F)c1` (racemic) [Example 41, (R/S) 3-{3-[(Cyclopentyl{3-methyl-4-[5-(trifluoromethyl)pyridin-3-yl]phenyl}acetyl)amino]-2-methylphenyl}propanoic acid], the IC50 came out at 0.0192 µM.

Take `CCOc1cncc(-c2ccc(C(C(=O)Nc3cccc(CCC(=O)O)c3C)C3CCCC3)cc2F)c1` (racemic) [Example 46, (R/S) 3-[3-({Cyclopentyl[4-(5-ethoxypyridin-3-yl)-3-fluorophenyl]acetyl}amino)-2-methylphenyl]propanoic acid]: the IC50 turned out to be 0.0553 µM.

In the case of `Cc1c(CCC(=O)O)cccc1NC(=O)C(c1ccc(-c2cncc(C(F)(F)F)c2)c(F)c1)C1CCCC1` (racemic) [Example 47, (R/S) 3-{3-[(Cyclopentyl{3-fluoro-4-[5-(trifluoromethyl)pyridin-3-yl]phenyl}acetyl)amino]-2-methylphenyl}propanoic acid], the IC50 came out at 0.0159 µM.

As for `Cc1c(CCC(=O)O)cccc1NC(=O)C(c1ccc(-c2cncc(C(F)F)c2)c(F)c1)C1CCCC1` (racemic) [Example 50, (R/S) 3-{3-[(cyclopentyl{4-[5-(difluoromethyl)pyridin-3-yl]-3-fluorophenyl}acetyl)amino]-2-methylphenyl}propanoic acid], the IC50 was determined as 0.0429 µM.

As for `CCOc1cncc(-c2ccc(C(C(=O)Nc3cccc(CCC(=O)O)c3C)C3CCCC3)c(F)c2)c1` (racemic) [Example 52, (R/S) 3-[3-({Cyclopentyl[4-(5-ethoxypyridin-3-yl)-2-fluorophenyl]acetyl}amino)-2-methylphenyl]propanoic acid], the IC50 is 0.273 µM.
